From patent US10906940B2, “Antimicrobial peptides, pharmaceutical compositions, and methods of use thereof” (priority 2014, dated 2021)
In brackets after ≈: the same amount, converted by molar mass. Where a SMILES comes first, the peptide text is derived from it. Bridges are numbered along the chain shown (N, C = ends). [ ]: non-standard residue; d: D form. The star is where a group is joined. Pentadecanoyl = CCCCCCCCCCCCCCC(=O)*; Tridecanoyl = CCCCCCCCCCCCC(=O)*; dOrn = NCCC[C@@H](N)C(=O)O

What was measured:
[1] = tested on: E. coli CVM 40131 (ctx-m-2); format: cell-based, Escherichia coli
Text: (§1) The same MIC assay as in Example 6 was used to determine the antimicrobial susceptibility of Compound A, L-form (FIG. 15), and several variants. One variant was Compound A, D-form, with D-Lysine at position 7. Compound B is a variant in the fatty acid chain, with a fatty acid chain composition of C15H29O, and having D-Lys at position 7. Compound C is a variant in the fatty acid chain with a fatty acid chain composition of C11H21O, and having D-Lys at position 7. Variant D is a sequence variant with Phe at position 6 of the cyclic peptide, and having D-Lys at position 7. All variants were chemically synthesized.

E. coli CVM 15100 (mir1) = format: cell-based, Escherichia coli
Text: as §1

[2] = tested on: E. coli CVM 40141 (imp-1); format: cell-based, Escherichia coli
Text: as §1

E. coli CVM40146 (vim-1) = format: cell-based, Escherichia coli
Text: as §1

E. coli CVM40148 (veb-1) = format: cell-based, Escherichia coli
Text: as §1

[3] = tested on: E. coli CVM 40130 (oxa-9); format: cell-based, Escherichia coli
Text: as §1

[4] = tested on: E. coli CVM 40139 (fox-1); format: cell-based, Escherichia coli
Text: as §1

[5] = tested on: E. coli CVM 40133 (ctx-m-14); format: cell-based, Escherichia coli
Text: as §1

[6] = tested on: E. coli CVM 35778 (ctx-m-2); format: cell-based, Escherichia coli
Text: as §1

[7] = tested on: E. coli CVM 40137 (DHA-1); format: cell-based, Escherichia coli
Text: as §1

[8] = tested on: E. coli CVM 40147 (vim-2); format: cell-based, Escherichia coli
Text: as §1

[9] = tested on: E. coli CVM 40136 (tem 52b); format: cell-based, Escherichia coli
Text: as §1

[10] = tested on: E. coli CVM 40128 (oxa-7); format: cell-based, Escherichia coli
Text: as §1

[11] = tested on: E. coli CVM 40143 (act-1); format: cell-based, Escherichia coli
Text: as §1

[12] = tested on: E. coli CVM 40126 (oxa-1); format: cell-based, Escherichia coli
Text: as §1

[13] = tested on: E. coli CVM 40127 (oxa-2); format: cell-based, Escherichia coli
Text: as §1

E. coli CVM 15104 (shv3) = format: cell-based, Escherichia coli
Text: as §1

[14] = tested on: E. coli CVM 40132 (ctx-m-9); format: cell-based, Escherichia coli
Text: as §1

E. coli CVM 15103 (tem2) = format: cell-based, Escherichia coli
Text: as §1

[15] = tested on: E. coli CVM 40129 (oxa-5); format: cell-based, Escherichia coli
Text: as §1

[16] = tested on: E. coli CVM 40134 (ctx-m-15); format: cell-based, Escherichia coli
Text: as §1

[17] = tested on: E. coli CVM 40138 (LCR-1); format: cell-based, Escherichia coli
Text: as §1

[18] = tested on: E. cloacae CVM 15101 (P99); format: cell-based, Enterobacter cloacae
Text: as §1

S. aureus 14 = experiment: microbe, parasite or virus in culture; format: cell-based, Staphylococcus aureus; settings: 14
Text: as §1

S. aureus 8 = experiment: microbe, parasite or virus in culture; format: cell-based, Staphylococcus aureus; settings: 8
Text: as §1

S. aureus 6 = experiment: microbe, parasite or virus in culture; format: cell-based, Staphylococcus aureus; settings: 6
Text: as §1

S. aureus 12 = experiment: microbe, parasite or virus in culture; format: cell-based, Staphylococcus aureus; settings: 12
Text: as §1

S. aureus 2 = experiment: microbe, parasite or virus in culture; format: cell-based, Staphylococcus aureus; settings: 2
Text: as §1

S. aureus 10 = experiment: microbe, parasite or virus in culture; format: cell-based, Staphylococcus aureus; settings: 10
Text: as §1

S. aureus 4 = experiment: microbe, parasite or virus in culture; format: cell-based, Staphylococcus aureus; settings: 4
Text: as §1

S. aureus 19 = experiment: microbe, parasite or virus in culture; format: cell-based, Staphylococcus aureus; settings: 19
Text: as §1

[19] = tested on: Serratia marcescens SAMN 04276914; format: cell-based; settings: SAMN 04276914
Text: as §1

[20] = tested on: Serratia marcescens SAMN 04276915; format: cell-based; settings: SAMN 04276915
Text: as §1

[21] = tested on: Serratia marcescens SBJ-8283; format: cell-based; settings: SBJ-8283
Text: as §1

[22] = tested on: Salmonella CVM 1290 (cmy2); format: cell-based
Text: as §1

[23] = tested on: Enterobacter cloacae SBJ-9395; format: cell-based; settings: SBJ-9395
Text: as §1

[24] = tested on: Serratia marcescens SAMN04022954; format: cell-based; settings: SAMN04022954
Text: as §1

[25] = tested on: Salmonella CVM 40119 (tem 12); format: cell-based
Text: as §1

[26] = tested on: Serratia marcescens SBJ-9047; format: cell-based; settings: SBJ-9047
Text: as §1

[27] = tested on: Salmonella CVM 40118 (oxa-1); format: cell-based
Text: as §1

| Structure (SMILES) | MIC [1] [µg/mL] | MIC (E. coli CVM 15100 (mir1)) [µg/mL] | MIC [2] [µg/mL] | MIC (E. coli CVM40146 (vim-1)) [µg/mL] | MIC (E. coli CVM40148 (veb-1)) [µg/mL] | MIC [3] [µg/mL] | MIC [4] [µg/mL] | MIC [5] [µg/mL] | MIC [6] [µg/mL] | MIC [7] [µg/mL] | MIC [8] [µg/mL] | MIC [9] [µg/mL] | MIC [10] [µg/mL] | MIC [11] [µg/mL] | MIC [12] [µg/mL] | MIC [13] [µg/mL] | MIC (E. coli CVM 15104 (shv3)) [µg/mL] | MIC [14] [µg/mL] | MIC (E. coli CVM 15103 (tem2)) [µg/mL] | MIC [15] [µg/mL] | further results |
| --- | --- | --- | --- | --- | --- | --- | --- | --- | --- | --- | --- | --- | --- | --- | --- | --- | --- | --- | --- | --- | --- |
| CCCCCCCCCCCCC(=O)N[C@H](CCCN)C(=O)N[C@H](C(=O)N[C@@H]1C(=O)N[C@H](CCCN)C(=O)N[C@@H](CO)C(=O)N[C@@H](Cc2ccc(O)cc2)C(=O)N[C@H](CCCCN)C(=O)N[C@H](CO)C(=O)N[C@@H]([C@@H](C)CC)C(=O)N2CCC[C@H]2C(=O)N[C@@H]([C@@H](C)CC)C(=O)N2CCC[C@H]2C(=O)N[C@@H]([C@@H](C)CC)C(=O)O[C@@H]1C)C(C)C [Compound A D-form] (Tridecanoyl-[dOrn]VT[dOrn]SY[dK][dS]IPIPI; ester 3-C) | 8 (≈ 4.93 µM) | 8 (≈ 4.93 µM) | 16 (≈ 9.85 µM) | 8 (≈ 4.93 µM) | 8 (≈ 4.93 µM) | 8 (≈ 4.93 µM) | 8 (≈ 4.93 µM) | 16 (≈ 9.85 µM) | 8 (≈ 4.93 µM) | 8 (≈ 4.93 µM) | 16 (≈ 9.85 µM) | 16 (≈ 9.85 µM) | 8 (≈ 4.93 µM) | 8 (≈ 4.93 µM) | 8 (≈ 4.93 µM) | 8 (≈ 4.93 µM) | 8 (≈ 4.93 µM) | 8 (≈ 4.93 µM) | 8 (≈ 4.93 µM) | 8 (≈ 4.93 µM) | MIC [16]: 8 µg/mL (≈ 4.93 µM); MIC [17]: 8 µg/mL (≈ 4.93 µM); MIC [18]: 8 µg/mL (≈ 4.93 µM); MIC (S. aureus 14): 8 µg/mL (≈ 4.93 µM); MIC (S. aureus 8): 4 µg/mL (≈ 2.46 µM); MIC (S. aureus 6): 4 µg/mL (≈ 2.46 µM); MIC (S. aureus 12): 4 µg/mL (≈ 2.46 µM); MIC (S. aureus 2): 4 µg/mL (≈ 2.46 µM); MIC (S. aureus 10): 8 µg/mL (≈ 4.93 µM); MIC (S. aureus 4): 4 µg/mL (≈ 2.46 µM); MIC (S. aureus 19): 8 µg/mL (≈ 4.93 µM); MIC [19]: 32 µg/mL (≈ 19.7 µM); MIC [20]: 64 µg/mL (≈ 39.4 µM); MIC [21]: 16 µg/mL (≈ 9.85 µM); MIC [22]: 8 µg/mL (≈ 4.93 µM); MIC [23]: 8 µg/mL (≈ 4.93 µM); MIC [24]: 32 µg/mL (≈ 19.7 µM); MIC [25]: 16 µg/mL (≈ 9.85 µM); MIC [26]: 32 µg/mL (≈ 19.7 µM); MIC [27]: 4 µg/mL (≈ 2.46 µM) |
| CCCCCCCCCCCCC(=O)N[C@H](CCCN)C(=O)N[C@H](C(=O)N[C@@H]1C(=O)N[C@H](CCCN)C(=O)N[C@@H](CO)C(=O)N[C@@H](Cc2ccc(O)cc2)C(=O)N[C@@H](CCCCN)C(=O)N[C@H](CO)C(=O)N[C@@H]([C@@H](C)CC)C(=O)N2CCC[C@H]2C(=O)N[C@@H]([C@@H](C)CC)C(=O)N2CCC[C@H]2C(=O)N[C@@H]([C@@H](C)CC)C(=O)O[C@@H]1C)C(C)C [Compound A L-form] (Tridecanoyl-[dOrn]VT[dOrn]SYK[dS]IPIPI; ester 3-C) | 4 (≈ 2.46 µM) | 8 (≈ 4.93 µM) | 32 (≈ 19.7 µM) | 8 (≈ 4.93 µM) | 8 (≈ 4.93 µM) | 8 (≈ 4.93 µM) | 8 (≈ 4.93 µM) | 8 (≈ 4.93 µM) | 8 (≈ 4.93 µM) | 8 (≈ 4.93 µM) | 16 (≈ 9.85 µM) | 8 (≈ 4.93 µM) | 8 (≈ 4.93 µM) | 8 (≈ 4.93 µM) | 4 (≈ 2.46 µM) | 8 (≈ 4.93 µM) | 8 (≈ 4.93 µM) | 8 (≈ 4.93 µM) | 8 (≈ 4.93 µM) | 4 (≈ 2.46 µM) | MIC [16]: 8 µg/mL (≈ 4.93 µM); MIC [17]: 8 µg/mL (≈ 4.93 µM); MIC [18]: 8 µg/mL (≈ 4.93 µM); MIC [19]: 64 µg/mL (≈ 39.4 µM); MIC [20]: ≥128 µg/mL; MIC [22]: 8 µg/mL (≈ 4.93 µM); MIC [24]: ≥128 µg/mL; MIC [25]: 8 µg/mL (≈ 4.93 µM); MIC [27]: 4 µg/mL (≈ 2.46 µM) |
| CCCCCCCCCCCCCCC(=O)N[C@H](CCCN)C(=O)N[C@H](C(=O)N[C@@H]1C(=O)N[C@H](CCCN)C(=O)N[C@@H](CO)C(=O)N[C@@H](Cc2ccc(O)cc2)C(=O)N[C@H](CCCCN)C(=O)N[C@H](CO)C(=O)N[C@@H]([C@@H](C)CC)C(=O)N2CCC[C@H]2C(=O)N[C@@H]([C@@H](C)CC)C(=O)N2CCC[C@H]2C(=O)N[C@@H]([C@@H](C)CC)C(=O)O[C@@H]1C)C(C)C [Compound B] (Pentadecanoyl-[dOrn]VT[dOrn]SY[dK][dS]IPIPI; ester 3-C; N-terminus assumed) | 8 (≈ 4.84 µM) | 16 (≈ 9.68 µM) | 16 (≈ 9.68 µM) | 8 (≈ 4.84 µM) | 8 (≈ 4.84 µM) | 8 (≈ 4.84 µM) | 16 (≈ 9.68 µM) | 16 (≈ 9.68 µM) | 32 (≈ 19.4 µM) | 16 (≈ 9.68 µM) | 16 (≈ 9.68 µM) | 8 (≈ 4.84 µM) | 8 (≈ 4.84 µM) | 16 (≈ 9.68 µM) | 4 (≈ 2.42 µM) | 16 (≈ 9.68 µM) | 16 (≈ 9.68 µM) | 16 (≈ 9.68 µM) | 8 (≈ 4.84 µM) | 8 (≈ 4.84 µM) | MIC [16]: 8 µg/mL (≈ 4.84 µM); MIC [17]: 8 µg/mL (≈ 4.84 µM); MIC [18]: 8 µg/mL (≈ 4.84 µM); MIC (S. aureus 14): 4 µg/mL (≈ 2.42 µM); MIC (S. aureus 8): 4 µg/mL (≈ 2.42 µM); MIC (S. aureus 6): 8 µg/mL (≈ 4.84 µM); MIC (S. aureus 12): 4 µg/mL (≈ 2.42 µM); MIC (S. aureus 2): 4 µg/mL (≈ 2.42 µM); MIC (S. aureus 10): 4 µg/mL (≈ 2.42 µM); MIC (S. aureus 4): 4 µg/mL (≈ 2.42 µM); MIC (S. aureus 19): 4 µg/mL (≈ 2.42 µM); MIC [19]: 64 µg/mL (≈ 38.7 µM); MIC [20]: ≥128 µg/mL; MIC [21]: 32 µg/mL (≈ 19.4 µM); MIC [22]: 16 µg/mL (≈ 9.68 µM); MIC [23]: 16 µg/mL (≈ 9.68 µM); MIC [24]: ≥128 µg/mL; MIC [25]: 8 µg/mL (≈ 4.84 µM); MIC [26]: ≥128 µg/mL; MIC [27]: 4 µg/mL (≈ 2.42 µM) |
